Source: PMC11324046, “Second-generation piperazine derivatives as promising radiation countermeasures” (RSC Medicinal Chemistry, 2024)
Like-named read-outs stand apart in the source and are kept apart here.

How the values were obtained:
[1] = WST-1 proliferation assay, HT-29; assay type: cell-based; details: human, HT-29 cells (colorectal adenocarcinoma), vs 0.1% DMSO control = 100%, mean ± standard deviation
Procedure: (§1) A thorough analysis of antiproliferative activity was performed across various cell culture types representing different histotypes: leukemia (Jurkat, MOLT-4), lung adenocarcinoma (A549), colorectal adenocarcinoma (HT-29), pancreatic carcinoma (PANC-1), breast adenocarcinoma (MCF-7), osteosarcoma (SAOS-2), and one non-cancerous cell line (fetal lung fibroblasts MRC-5). The cell lines were exposed to the newly synthesized compounds at a concentration of 100 μM for 48 h in a single-dose treatment. Changes in cell proliferation compared to the vehicle 0.1% dimethyl sulfoxide (DMSO) control were determined using the WST-1 assay, which is based on mitochondrial dehydrogenase metabolic activities. […] The overall cytotoxic activity of each compound was expressed as growth percent (GP) – the mean of the proliferation of all cell lines treated with the same compound.
(§2) Selected human tumor and non-tumor cell lines Jurkat (acute T-cell leukemia), MOLT-4 (acute lymphoblastic leukemia), A549 (lung carcinoma), HT-29 (colorectal adenocarcinoma), PANC-1 (pancreas epithelioid carcinoma), MCF-7 (breast adenocarcinoma), SAOS-2 (osteosarcoma) and MRC-5 (normal lung fibroblasts) were purchased from either American Type Culture Collection (ATCC; VA, USA) or Sigma-Aldrich (St. Louis, MO, USA) and cultured according to the provider's culture method guidelines. All cell lines were maintained at 37 °C in a humidified 5% carbon dioxide and 95% air incubator. Cells in the maximum range of either 10 passages for the adherent cell lines (A549, HT-29, PANC-1, MCF-7, SAOS-2, and MRC-5), or 20 passages for suspension cell lines (Jurkat, MOLT-4,) and in an exponential growth phase were used for this study. Screening of the antiproliferative effect and growth percent calculation were conducted as follows: each cell line was seeded at previously established optimal density (1–50 × 10^3 cells per well) in a 96-well plate (TPP, Trasadingen, Switzerland) and cells were allowed to settle overnight. Cells were treated for 48 h with compounds at a final concentration of 100 μM. At the end of the cultivation period, the WST-1 proliferation assay (Roche, Basel, Switzerland) was performed according to the manufacturer's protocol. The absorbance was measured at 440 nm using a Tecan Spark multimode microplate reader (Tecan, Mannedorf, Switzerland). Each value is the mean of three independent experiments and represents the percentage of proliferation (100% cell proliferation for 0.1% DMSO mock-treated control cells). The GP value was calculated for each compound tested. GP represents the mean of the percentage proliferation decrease of all cell lines treated with the same compound.

[2] = WST-1 proliferation assay, PANC-1; assay type: cell-based; details: human, PANC-1 cells (pancreas epithelioid carcinoma), vs 0.1% DMSO control = 100%, mean ± standard deviation
Procedure: as §1, §2

MOLT-4 cells = assay: Annexin V/PI flow cytometry viability of irradiated MOLT-4 cells; assay type: cell-based, human; details: 2 Gy; for viability at 100 µM / viability at 200 µM: Homo sapiens, 2 h pretreatment, 24 h
Procedure: Consequently, we investigated whether the pre-application of these substances can augment the survival of MOLT-4 cells after irradiation exposure. The radioprotective investigation utilized a leukemia MOLT-4 cell model of hematopoietic origin with flow cytometric quantification of cell viability via annexin V/propidium iodide staining.
In the following step, at 24 h after irradiation, MOLT-4 cell viability and cell death were determined by flow cytometry using an Alexa Fluor® 488 annexin V/Dead Cell Apoptosis kit (Life Technologies, Grand Island, NY, USA) following the manufacturer's instructions. The Alexa Fluor®488 annexin V/Dead Cell Apoptosis kit employs the property of Alexa Fluor®488 conjugated to annexin V to bind to phosphatidylserine in the presence of Ca^2+; and the ability of propidium iodide to enter cells with damaged cell membranes and bind to DNA. For each sample, a minimum of 20 000 events were acquired using a CytoFLEX LX flow cytometer (Beckman Coulter, Miami, FL, USA). List mode data were analyzed using Kaluza Analysis 2.1 software (Beckman Coulter, Miami, FL, USA).

[3] = WST-1 proliferation assay, A549; assay type: cell-based; details: human, A549 cells (lung carcinoma), vs 0.1% DMSO control = 100%, mean ± standard deviation
Procedure: as §1, §2

[4] = MOLT-4, representative histogram Fig. 5A (2 Gy alone 26 %), read-out: Viable (annexin V/PI negative) MOLT-4 cells, compound + 2 Gy
[5] = MOLT-4, representative histogram Fig. 6A (2 Gy alone 27 %), read-out: Viable (annexin V/PI negative) MOLT-4 cells, compound + 2 Gy
[6] = MOLT-4, light or radiation study, annexin V/PI negative cells, read-out: Viability rate of MOLT-4 cells relative to 2 Gy irradiation alone (100%)
[7] = MOLT-4, annexin V/PI negative cells, read-out: Viable MOLT-4 cells relative to 2 Gy radiation alone (100%)

| Structure (SMILES) | viability at 48 h, 100 µM [1] [%] | viability at 48 h, 100 µM [2] [%] | viability at 100 µM (MOLT-4 cells; [4]) [%] | viability at 200 µM (MOLT-4 cells; [5]) [%] | viability at 48 h, 100 µM [3] [%] | viability at 100 µM (MOLT-4 cells; [6]) [%] | Radioprotective effect in MOLT-4 cells (in words) (MOLT-4 cells; 100 μM and 200 μM) | viability at 200 µM (MOLT-4 cells; [7]) [%] |
| --- | --- | --- | --- | --- | --- | --- | --- | --- |
| COc1ccc(OCC(O)CN2CCN(CCO)CC2)c([N+](=O)[O-])c1 (stereo not shown) [Compound 2, 1-(4-(2-Hydroxyethyl)piperazin-1-yl)-3-(4-methoxy-2-nitrophenoxy)propan-2-ol] | 103 ± 3 | 104 ± 3 | 35 | 36 | 111 ± 11 | – | – | – |
| NCCCNCCSP(=O)(O)O [WR2721, amifostine, reference compound] | 27 ± 3 | 8 ± 4 | 28 | 22 | 5 | 106 | – | – |
| O=[N+]([O-])c1ccc(OCC(O)CN2CCN(CCO)CC2)c(F)c1 (stereo not shown) [Compound 3, 1-(4-(2-Hydroxyethyl)piperazin-1-yl)-3-(2-fluoro-4-nitrophenoxy)propan-2-ol] | 94 ± 9 | 90 ± 4 | 31 | 35 | 106 ± 11 | – | – | – |
| NCCCNCCS [WR1065, reference compound] | 20 ± 2 | 3 ± 1 | 19 | 9 | 3 | – | did not exhibit distinct radioprotective effects | – |
| OCCN1CCN(CC(O)COc2ccc(F)cc2)CC1 (stereo not shown) [Compound 4, 1-(4-(2-Hydroxyethyl)piperazin-1-yl)-3-(4-fluorophenoxy)propan-2-ol] | 99 ± 3 | 97 ± 1 | 35 | 37 | 112 ± 14 | 143 | – | 145 |
| COc1cc([N+](=O)[O-])ccc1OCC(O)CN1CCN(CCO)CC1 (stereo not shown) [Compound 1, 1-(4-(2-Hydroxyethyl)piperazin-1-yl)-3-(2-methoxy-4-nitrophenoxy)propan-2-ol] | 141 ± 42 | 108 ± 3 | 35 | 36 | 112 ± 8 | – | – | – |
| OCCN1CCN(CC(O)COc2cccc(Cl)c2)CC1 (stereo not shown) [Compound 6, 1-(4-(2-Hydroxyethyl)piperazin-1-yl)-3-(3-chlorophenoxy)propan-2-ol] | 85 ± 7 | 94 ± 3 | 37 | 39 | 99 ± 11 | 135 | – | 137 |
| O=[N+]([O-])c1cc(OCC(O)CN2CCN(CCO)CC2)ccc1Cl (stereo not shown) [Compound 5, 1-(4-(2-Hydroxyethyl)piperazin-1-yl)-3-(4-chloro-3-nitrophenoxy)propan-2-ol] | 95 ± 6 | 100 ± 3 | 32 | 30 | 109 ± 9 | – | – | – |
